Values belong to the compound of their own block, whether it stands above or below them. Where a SMILES comes first, the peptide text is derived from it. [ ]: non-standard residue; d: D form. The star is where a group is joined. Ac6c = NC1(C(=O)O)CCCCC1; Cbz = O=C(OCc1ccccc1)*; CH2F = FC*
What was measured:
Plasmodium vinckei = experiment: Antimalarial activity against Plasmodium vinckei infected in Swiss webster mouse assessed as disease cure rate at 50 to 100 mg/kg, po administered twice a day for 4 days; type: functional; conditions: dose 50-100 mg/kg, time 4 day
[1] = Inhibition of Plasmodium vinckei extracts VP-2 using Z-phe-Arg-AMC as substrate pretreated with enzyme for 30 mins followed by substrate addition and measured for 30 mins by spectrofluorometry
Plasmodium falciparum [2] = experiment: Antiplasmodial activity against Plasmodium falciparum Dd2; type: functional, organism-based
Plasmodium falciparum [3] = experiment: Antiplasmodial activity against Plasmodium falciparum D6; type: functional, organism-based
Falcipain 2 [4] = molecular target: T1, Falcipain 2 (Plasmodium falciparum, UniProt Q9N6S8); experiment: Inhibition of Plasmodium falciparum Itg2 trophozite extracts FP-2 using Z-phe-Arg-AMC as substrate pretreated with enzyme for 30 mins followed by substrate addition and measured for 30 mins by spectrofluorometry
T1 sequence (Q9N6S8 whole entry): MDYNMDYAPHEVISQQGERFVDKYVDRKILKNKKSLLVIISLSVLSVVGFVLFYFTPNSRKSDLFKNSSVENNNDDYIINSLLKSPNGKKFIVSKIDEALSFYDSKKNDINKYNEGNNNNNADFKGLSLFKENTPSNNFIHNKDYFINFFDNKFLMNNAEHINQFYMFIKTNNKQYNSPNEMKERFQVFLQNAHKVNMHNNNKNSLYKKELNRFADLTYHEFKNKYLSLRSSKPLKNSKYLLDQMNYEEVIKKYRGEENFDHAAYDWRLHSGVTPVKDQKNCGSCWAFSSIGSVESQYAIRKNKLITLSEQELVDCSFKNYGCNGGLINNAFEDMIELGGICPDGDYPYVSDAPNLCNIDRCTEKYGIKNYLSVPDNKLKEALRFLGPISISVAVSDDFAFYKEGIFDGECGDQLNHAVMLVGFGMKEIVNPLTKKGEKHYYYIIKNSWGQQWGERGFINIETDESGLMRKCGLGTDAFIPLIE

Plasmodium falciparum [5] = experiment: Antiplasmodial activity against Plasmodium falciparum ItG; type: functional, organism-based
Plasmodium falciparum [6] = experiment: Antiplasmodial activity against Plasmodium falciparum HB3; type: functional, organism-based
Plasmodium falciparum [7] = experiment: Antiplasmodial activity against Plasmodium falciparum W2; type: functional, organism-based
Falcipain-3 = molecular target: T2, Falcipain-3 (Plasmodium falciparum 3D7, UniProt Q8IIL0); experiment: Inhibition of Plasmodium falciparum D10 trophozite lysates FP-3 pretreated with compound for 1 hr followed by labeling with Cy5-DCG04 for 1 hr by fluorescence scanning analysis; type: subcellular
T2 sequence (Q8IIL0 whole entry): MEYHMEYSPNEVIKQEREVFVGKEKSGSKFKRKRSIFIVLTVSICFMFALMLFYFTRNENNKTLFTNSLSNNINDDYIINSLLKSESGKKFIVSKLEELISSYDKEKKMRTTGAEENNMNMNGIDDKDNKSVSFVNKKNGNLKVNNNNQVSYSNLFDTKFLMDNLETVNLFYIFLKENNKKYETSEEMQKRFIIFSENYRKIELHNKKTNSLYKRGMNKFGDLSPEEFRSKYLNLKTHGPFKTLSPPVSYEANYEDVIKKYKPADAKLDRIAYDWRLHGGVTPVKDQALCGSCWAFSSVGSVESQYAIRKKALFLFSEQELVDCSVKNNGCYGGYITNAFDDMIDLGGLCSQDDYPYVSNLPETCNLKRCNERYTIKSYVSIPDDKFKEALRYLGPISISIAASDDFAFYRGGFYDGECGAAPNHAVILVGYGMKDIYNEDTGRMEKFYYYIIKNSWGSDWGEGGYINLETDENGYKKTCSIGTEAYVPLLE

Plasmodium falciparum [8] = experiment: Antiplasmodial activity against Plasmodium falciparum W2 infected in human erythrocytes assessed as inhibition of parasite growth measured after 48 hrs by flow cytometry; type: functional, organism-based; conditions: W2, Erythrocyte
Falcipain 2 [9] = molecular target: T1, Falcipain 2; experiment: Inhibition of Plasmodium falciparum FP-2 using Z-Leu-Arg-AMC as substrate pretreated with enzyme for 30 mins followed by substrate addition and measured for 15 mins by spectrofluorometry
Falcipain 2 [10] = molecular target: T1, Falcipain 2; experiment: Inhibition of Plasmodium falciparum FP-2 using Cbz-Leu-Arg-AMC as substrate and measured for 5 to 10 mins by fluorescence spectrophotometric analysis
[11] = tested on: Cathepsin B (relative to Plasmodium falciparum FP-2); experiment: Selectivity index, ratio of Ki for inhibition of human Cathepsin B to Ki for inhibition of Plasmodium falciparum FP-2; type: toxicity; conditions: read-out: Ratio Ki
[12] = tested on: Cathepsin L (relative to Plasmodium falciparum FP-2); experiment: Selectivity index, ratio of Ki for inhibition of human Cathepsin L to Ki for inhibition of Plasmodium falciparum FP-2; type: toxicity; conditions: read-out: Ratio Ki
Heme = experiment: Inhibition of heme (unknown origin) assessed as inhibition of hemozoin formation incubated for 24 hrs by FBIT test
Plasmodium falciparum [13] = experiment: Antimalarial activity against Chloroquine-resistant Plasmodium falciparum RKL9 infected in human erythrocytes assessed as inhibition of parasite growth incubated for 72 hrs by Giemsa staining based analysis; type: functional, organism-based; conditions: RKL9, Erythrocyte
Falcipain 2 [14] = molecular target: T1, Falcipain 2; experiment: Inhibition of Plasmodium falciparum FP-2 using Z-Phe-Arg-AMC as substrate pretreated with enzyme for 10 mins followed by susbtrate addition and measured after 10 mins by fluorescence based analysis
Plasmodium falciparum [15] = experiment: Antimalarial activity against Chloroquine-sensitive Plasmodium falciparum 3D7 infected in human erythrocytes assessed as inhibition of parasite growth incubated for 72 hrs by Giemsa staining based analysis; type: functional, organism-based; conditions: 3D7, Erythrocyte
Plasmodium falciparum [16] = experiment: Antiplasmodial activity against chloroquine-resistant Plasmodium falciparum W2 infected in human RBC assessed as inhibition of parasite growth measured after 72 hrs by Malstat assay; type: functional, organism-based; conditions: W2, Erythrocyte
Falcipain 2 [17] = molecular target: T1, Falcipain 2; experiment: Binding affinity to Plasmodium falciparum FP-2 by surface plasmon resonance analysis
Plasmodium falciparum [18] = experiment: Antiplasmodial activity against chloroquine-sensitive Plasmodium falciparum D6 infected in human RBC assessed as inhibition of parasite growth measured after 72 hrs by Malstat assay; type: functional, organism-based; conditions: D6, Erythrocyte
Falcipain 2 [19] = molecular target: T1, Falcipain 2; experiment: Inhibition of Plasmodium falciparum FP-2 using Z-Leu-Arg-AMC as substrate pretreated with enzyme for 30 mins followed by substrate addition and measured for 30 mins by spectrofluorometry
Falcipain 2 [20] = molecular target: T1, Falcipain 2; experiment: Inhibition of Plasmodium falciparum trophozite extracts FP-2
Plasmodium falciparum [21] = experiment: Antiplasmodial activity against Plasmodium falciparum FCR3; type: functional, organism-based
Plasmodium falciparum [22] = experiment: Antiplasmodial activity against Plasmodium falciparum ItG2; type: functional; conditions: read-out: LD50 (the source's name)
Falcipain 2 [23] = molecular target: T1, Falcipain 2; experiment: Inhibition of Plasmodium falciparum FP-2 using Z-phe-Arg-AMC as substrate pretreated with enzyme for 30 mins followed by substrate addition and measured for 30 mins by fluorescence based analysis
Plasmodium falciparum [24] = experiment: Antimalarial activity against Plasmodium falciparum FCB1 infected in erythrocytes assessed as inhibition of [3H]hypoxanthine incorporation incubated for 24 to 48 hrs by beta counting analysis; type: functional, organism-based; conditions: FCB1, Erythrocyte

Structure (SMILES): CC[C@H](C)[C@@H](C(=O)O[C@@H](CC(C)C)C(=O)N[C@@H](CC(C)C)C(=O)N[C@@H](C)/C=C/C(=O)N1C(=O)C=C(OC)[C@@H]1C)N(C)C [GALLINAMIDE A]
IC50 (Falcipain-3): 22 nM

Structure (SMILES): O=CCNC(=O)C1(NC(=O)OCc2ccccc2)CCCCC1 (Cbz-[Ac6c]-Gly-aldehyde)
Ki (Falcipain 2 [10]): 65 nM | selectivity ratio [11]: 20.8 | selectivity ratio [12]: 12.6

Structure (SMILES): COc1cccc(/C=C(\C#N)c2nc3ccccc3[nH]2)c1
IC50 (Heme): 260 nM | IC50 (Plasmodium falciparum [13]): 3410 nM | IC50 (Falcipain 2 [14]): 2210 nM | IC50 (Plasmodium falciparum [15]): 690 nM

Structure (SMILES): O=C(/C=C\c1ccc(O)c(O)c1)O[C@H]1CO[C@@H](Oc2c(-c3ccc(O)cc3)oc3cc(O)cc(O)c3c2=O)[C@H](OC(=O)/C=C/c2ccc(O)cc2)[C@H]1O
IC50 (Plasmodium falciparum [16]): 2800 nM | Kd (Falcipain 2 [17]): 33600 nM | IC50 (Plasmodium falciparum [18]): 2900 nM | IC50 (Falcipain 2 [19]): 440 nM

Structure (SMILES): N=C(N)NCCC[C@H](NC(=O)[C@H](Cc1ccccc1)NC(=O)OCc1ccccc1)C(=O)CF (Cbz-Phe-Arg-CH2F)
IC50 (Falcipain 2 [20]): 0.36 nM | IC50 (Plasmodium falciparum [21]): 64 nM | LC50 (Plasmodium falciparum [22]): 64 nM | IC50 (Plasmodium falciparum [3]): 64 nM | IC50 (Plasmodium falciparum [6]): 100 nM | IC50 (Plasmodium falciparum [7]): 64 nM

Now from value to compound, other results behind:

IC50 [1]: 20 nM | IC50 (Plasmodium falciparum [2]): 0.32 nM | IC50 (Plasmodium falciparum [3]): 0.22 nM | IC50 (Falcipain 2 [4]): 2 nM | IC50 (Plasmodium falciparum [5]): 0.18 nM | IC50 (Plasmodium falciparum [6]): 0.19 nM | IC50 (Plasmodium falciparum [7]): 0.2 nM
Structure (SMILES): CC(C)C[C@H](NC(=O)N1CCN(C)CC1)C(=O)N[C@H](/C=C/S(=O)(=O)c1ccc2ccccc2c1)CCc1ccccc1
Activity (Plasmodium vinckei): 40%

IC50 (Falcipain 2 [9]): 25500 nM
Structure (SMILES): COc1cc(OC)c(/C=C2\SC(=O)N(CC(=O)N3CCN(c4ccccc4)CC3)C2=O)c(OC)c1
EC50 (Plasmodium falciparum [8]): 450 nM

IC50 (Falcipain 2 [23]): > 100000 nM | IC50 (Plasmodium falciparum [24]): 19000 nM
Structure (SMILES): COc1cc2cc(/C=C/C(=O)c3ccc(Cl)cc3Cl)c(Cl)nc2cc1OC

Source: ChEMBL document CHEMBL5325415, “Falcipains: Biochemistry, target validation and structure-activity relationship studies of inhibitors as antimalarials” (Eur J Med Chem, 2023)
